The values that follow come from US10323038B2, “Pyrazole compounds and methods of making and using same” (ABIDE THERAPEUTICS, INC., priority 2015, dated 2019).

The target in one assay is FAAH (Mus musculus (Mouse), UniProt O08914). In words: In vitro competitive activity-based protein profiling, FAAH (mouse). The format is biochemical. To be noted: for inhibition at 1 µM: read-out: FAAH % inh. 1 μM (mouse). An outline of the steps: (§1)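 Residual MAGL and FAAH activity came from in-gel fluorescence after competition between inhibitor (30 min preincubation, 37° C) and the activity-based probe FP-Rh or HT-01 (30 min, 37° C) in mouse or human tissue or cell proteomes.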

Another assay has as its target MAGL (Mus musculus (Mouse), UniProt O35678). In words: In vitro competitive activity-based protein profiling, MAGL (mouse). Type of assay: biochemical. To be noted: for inhibition at 1 µM: read-out: MAGL % inh. 1 μM (mouse). An outline of the steps: as §1

Sequence of FAAH (O08914 whole entry): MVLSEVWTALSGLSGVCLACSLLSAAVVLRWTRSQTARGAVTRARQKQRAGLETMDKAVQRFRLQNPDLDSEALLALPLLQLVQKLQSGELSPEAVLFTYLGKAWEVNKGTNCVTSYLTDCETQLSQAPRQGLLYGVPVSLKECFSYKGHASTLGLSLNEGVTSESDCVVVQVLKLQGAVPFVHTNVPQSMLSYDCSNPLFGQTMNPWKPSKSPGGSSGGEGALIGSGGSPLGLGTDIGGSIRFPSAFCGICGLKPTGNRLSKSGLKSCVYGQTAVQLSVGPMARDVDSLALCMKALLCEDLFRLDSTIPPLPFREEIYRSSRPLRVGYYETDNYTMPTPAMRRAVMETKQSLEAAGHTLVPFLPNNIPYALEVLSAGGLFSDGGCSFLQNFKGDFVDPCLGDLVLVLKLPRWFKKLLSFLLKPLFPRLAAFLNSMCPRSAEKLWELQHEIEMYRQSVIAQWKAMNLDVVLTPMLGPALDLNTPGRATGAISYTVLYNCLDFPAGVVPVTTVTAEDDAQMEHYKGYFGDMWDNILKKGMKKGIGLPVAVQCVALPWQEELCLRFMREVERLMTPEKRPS
Sequence of MAGL (O35678 whole entry): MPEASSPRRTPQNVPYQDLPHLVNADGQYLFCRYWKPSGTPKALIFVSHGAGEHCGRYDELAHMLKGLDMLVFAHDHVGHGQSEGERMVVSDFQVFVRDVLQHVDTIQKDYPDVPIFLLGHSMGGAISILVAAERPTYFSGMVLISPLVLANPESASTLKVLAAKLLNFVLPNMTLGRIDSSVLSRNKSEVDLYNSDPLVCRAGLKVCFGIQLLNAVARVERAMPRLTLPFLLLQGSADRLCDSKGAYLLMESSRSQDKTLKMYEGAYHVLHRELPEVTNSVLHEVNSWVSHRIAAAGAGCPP

Usually IC50 stands for the midpoint of a concentration-inhibition curve. Lower therefore signals higher potency. `CC(=O)N(C)c1cnn(C(=O)N2CCC3(CCN(Cc4cc(Cl)ccc4C(F)(F)F)C3)C2)c1` (centres unmarked) [Example 70, N-(1-(7-(5-chloro-2-(trifluoromethyl)benzyl)-2,7-diazaspiro[4.4]nonane-2-carbonyl)-1H-pyrazol-4-yl)-N-methylacetamide]: on FAAH, the IC50 was not above 0.1 µM and the inhibition at 1 µM was not below 75%. On MAGL, the IC50 is not above 0.1 µM and the inhibition at 1 µM is not below 75%.

Consider `CC(=O)N(C)c1cnn(C(=O)N2CCC3(CCN(Cc4cc(C(F)(F)F)ccc4Cl)C3)C2)c1` (centres unmarked) [Example 71, N-(1-(7-(2-chloro-5-(trifluoromethyl)benzyl)-2,7-diazaspiro[4.4]nonane-2-carbonyl)-1H-pyrazol-4-yl)-N-methylacetamide], for which the inhibition at 1 µM on FAAH and on MAGL was not below 75% each time.

Consider `CC(=O)N(C)c1cnn(C(=O)N2CCC3(CCN(Cc4cc(C(F)(F)F)ccc4C(F)(F)F)C3)C2)c1` (centres unmarked) [Example 72, N-(1-(7-(2,5-bis(trifluoromethyl)benzyl)-2,7-diazaspiro[4.4]nonane-2-carbonyl)-1H-pyrazol-4-yl)-N-methylacetamide], for which the inhibition at 1 µM at FAAH and at MAGL was not below 75% throughout.

With `CC(=O)N(C)c1cnn(C(=O)N2CCC3(CCN(Cc4cc(N5CCCC5)ccc4C(F)(F)F)C3)C2)c1` (centres unmarked) [Example 73, N-methyl-N-(1-(7-(5-(pyrrolidin-1-yl)-2-(trifluoromethyl)benzyl)-2,7-diazaspiro[4.4]nonane-2-carbonyl)-1H-pyrazol-4-yl)acetamide], the inhibition at 1 µM on FAAH and on MAGL was not below 75% each time.

Consider `CC(=O)N(C)c1cnn(C(=O)N2CCC3(CCN(Cc4cc(C(F)(F)F)ccc4N4CCCC4)C3)C2)c1` (centres unmarked) [Example 74, N-methyl-N-(1-(7-(2-(pyrrolidin-1-yl)-5-(trifluoromethyl)benzyl)-2,7-diazaspiro[4.4]nonane-2-carbonyl)-1H-pyrazol-4-yl)acetamide], for which the results for the inhibition at 1 µM at FAAH and on MAGL were 50 to 75% and not below 75%, respectively.

Regarding `CC(=O)N(C)c1cnn(C(=O)N2CCC3(CCN(Cc4cccc(Cl)c4)C3)C2)c1` (centres unmarked) [Example 78, N-(1-(7-(3-chlorobenzyl)-2,7-diazaspiro[4.4]nonane-2-carbonyl)-1H-pyrazol-4-yl)-N-methylacetamide], at FAAH, the 50% inhibitory concentration (IC50) is not above 0.1 µM and the inhibition at 1 µM was not below 75%. Moreover, at MAGL, the concentration for half-maximal inhibition (IC50) lay in the range of 1 to 10 µM and the inhibition at 1 µM lay in the range of 50 to 75%.

Turning to `CC(=O)N(C)c1cnn(C(=O)N2CCC3(CCN(Cc4cccc(N5CCCC5)c4)C3)C2)c1` (centres unmarked) [Example 82, N-methyl-N-(1-(7-(3-(pyrrolidin-1-yl)benzyl)-2,7-diazaspiro[4.4]nonane-2-carbonyl)-1H-pyrazol-4-yl)acetamide], the values for the inhibition at 1 µM at FAAH and at MAGL were not below 75% and 25 to 50%, respectively.

`CC(=O)N(C)c1cnn(C(=O)N2CC3(CCN(Cc4cccc(C)c4)CC3)C2)c1` [Example 83, N-methyl-N-(1-(7-(3-methylbenzyl)-2,7-diazaspiro[3.5]nonane-2-carbonyl)-1H-pyrazol-4-yl)acetamide]: the inhibition at 1 µM at FAAH and at MAGL was 25 to 50% throughout.

Take `CC(=O)N(C)c1cnn(C(=O)N2CC3(CCN(Cc4ccc(Cl)cc4)CC3)C2)c1` [Example 84, N-(1-(7-(4-chlorobenzyl)-2,7-diazaspiro[3.5]nonane-2-carbonyl)-1H-pyrazol-4-yl)-N-methylacetamide]: the inhibition at 1 µM was not below 75% at FAAH and 50 to 75% at MAGL.

Consider `CC(=O)N(C)c1cnn(C(=O)N2CC3(CCN(Cc4cccc(Cl)c4)CC3)C2)c1` [Example 85, N-(1-(7-(3-chlorobenzyl)-2,7-diazaspiro[3.5]nonane-2-carbonyl)-1H-pyrazol-4-yl)-N-methylacetamide], for which the inhibition at 1 µM at FAAH was not below 75%; at MAGL, 50 to 75%.

Turning to `CC(=O)N(C)c1cnn(C(=O)N2CC3(CCN(Cc4ccccc4Cl)CC3)C2)c1` [Example 86, N-(1-(7-(2-chlorobenzyl)-2,7-diazaspiro[3.5]nonane-2-carbonyl)-1H-pyrazol-4-yl)-N-methylacetamide], the inhibition at 1 µM on FAAH was not below 75%; at MAGL, 50 to 75%.

For `CC(=O)N(C)c1cnn(C(=O)N2CC3(CCN(Cc4ccc(C)cc4)CC3)C2)c1` [Example 87, N-methyl-N-(1-(7-(4-methylbenzyl)-2,7-diazaspiro[3.5]nonane-2-carbonyl)-1H-pyrazol-4-yl)acetamide], the results for the inhibition at 1 µM on FAAH and on MAGL were 25 to 50% and 50 to 75%, respectively.

`CC(=O)N(C)c1cnn(C(=O)N2CC3(CCN(Cc4cccc(C(F)(F)F)c4)CC3)C2)c1` [Example 88, N-methyl-N-(1-(7-(3-(trifluoromethyl)benzyl)-2,7-diazaspiro[3.5]nonane-2-carbonyl)-1H-pyrazol-4-yl)acetamide]: the figures for the inhibition at 1 µM at FAAH and on MAGL were not below 75% and 50 to 75%, respectively.

In the case of `CC(=O)N(C)c1cnn(C(=O)N2CC3(CCN(Cc4ccccc4C)CC3)C2)c1` [Example 89, N-methyl-N-(1-(7-(2-methylbenzyl)-2,7-diazaspiro[3.5]nonane-2-carbonyl)-1H-pyrazol-4-yl)acetamide], the inhibition at 1 µM at FAAH and on MAGL was 25 to 50% in each case.

On to `CC(=O)N(C)c1cnn(C(=O)N2CC3CN(Cc4ccc(C)cc4)CC3C2)c1` (centres unmarked) [Example 91, N-methyl-N-(1-(5-(4-methylbenzyl)octahydropyrrolo[3,4-c]pyrrole-2-carbonyl)-1H-pyrazol-4-yl)acetamide], for which, on FAAH, the IC50 is 0.1 to 1 µM and the inhibition at 1 µM was not below 75%. Also, on MAGL, the IC50 is 0.1 to 1 µM and the inhibition at 1 µM was in the range of 50 to 75%.

As for `CC(=O)N(C)c1cnn(C(=O)N2CC3CN(Cc4cccc(C)c4)CC3C2)c1` (centres unmarked) [Example 92, N-methyl-N-(1-(5-(3-methylbenzyl)octahydropyrrolo[3,4-c]pyrrole-2-carbonyl)-1H-pyrazol-4-yl)acetamide], on FAAH, the IC50 was not above 0.1 µM and the inhibition at 1 µM was not below 75%. Further, at MAGL, the concentration for half-maximal inhibition (IC50) lay in the range of 0.1 to 1 µM and the inhibition at 1 µM was not below 75%.

Consider `CC(=O)N(C)c1cnn(C(=O)N2CC3CN(Cc4ccc(N5CCCC5)cc4C(F)(F)F)CC3C2)c1` (centres unmarked) [Example 93, N-methyl-N-(1-(5-(4-(pyrrolidin-1-yl)-2-(trifluoromethyl)benzyl)octahydropyrrolo[3,4-c]pyrrole-2-carbonyl)-1H-pyrazol-4-yl)acetamide], for which the IC50 at FAAH and at MAGL was not above 0.1 µM each time. For the same compound, the inhibition at 1 µM at FAAH and at MAGL was not below 75% in each case.

Turning to `CC(=O)N(C)c1cnn(C(=O)N2CC3CN(Cc4ccccc4C)CC3C2)c1` (centres unmarked) [Example 94, N-methyl-N-(1-(5-(2-methylbenzyl)octahydropyrrolo[3,4-c]pyrrole-2-carbonyl)-1H-pyrazol-4-yl)acetamide], the IC50 on FAAH is not above 0.1 µM; at MAGL, 0.1 to 1 µM. Besides, the inhibition at 1 µM at FAAH and at MAGL was not below 75% throughout.

For the compound `CC(=O)N(C)c1cnn(C(=O)N2CC3CN(Cc4ccc(N5CCOCC5)c(Cl)c4)CC3C2)c1` (centres unmarked) [Example 95, N-(1-(5-(3-chloro-4-morpholinobenzyl)octahydropyrrolo[3,4-c]pyrrole-2-carbonyl)-1H-pyrazol-4-yl)-N-methylacetamide], the inhibition at 1 µM at FAAH and at MAGL was not below 75% each time.
